Measurements taken from article PMC10454678, “Synthesis of hydroxy benzoin/benzil analogs and investigation of their antioxidant, antimicrobial, enzyme inhibition, and cytotoxic activities” (Turkish Journal of Chemistry, 2021).
≈ marks a conversion by molar mass, not a printed value. Where “and” joins values, the source holds several entries; their conditions need not be identical. Equal values may be shown once. Read-outs that look alike come from different tables or passages of the source.

Columns and labels:
[1] = system: human retinal normal cell line (RPE); assay: MTT cell proliferation, RPE
[2] = system: human cervical cancer cell line (HeLa); assay: MTT cell proliferation, HeLa
[3] = system: Escherichia coli ATCC 25922; assay: MIC, microdilution, E. coli; type: cell-based; details: Escherichia coli
[4] = system: Yersinia pseudotuberculosis ATCC911; assay: microbe, parasite or virus in culture; type: cell-based; details: Yersinia pseudotuberculosis, ATCC911, read-out: MIC Yp
[5] = system: Pseudomonas aeruginosa ATCC27853; assay: MIC, microdilution, P. aeruginosa; type: cell-based; details: Pseudomonas aeruginosa, ATCC27853; Gram (-); Mueller-Hinton broth, 18-24 h, 36 °C; read-out: MIC Pa
[6] = system: Staphylococcus aureus ATCC25923; assay: MIC, microdilution, S. aureus; type: cell-based; details: Staphylococcus aureus
[7] = system: Streptococcus mutans RSKK07038; assay: MIC, microdilution, S. mutans; type: cell-based; details: Streptococcus mutans, RSKK07038; Gram (+); BHI broth, 72 h, 36 °C; read-out: MIC Sm
[8] = system: Bacillus cereus Roma709; assay: MIC, microdilution, B. cereus; type: cell-based; details: Bacillus cereus
[9] = system: Mycobacterium smegmatis ATCC607; assay: MIC, microdilution, M. smegmatis; type: cell-based; details: Mycolicibacterium smegmatis, ATCC607, 72 h, Tub., BHI broth, 36 °C, read-out: MIC Ms
[10] = system: Candida albicans ATCC60193; assay: MIC, microdilution, C. albicans; type: cell-based; details: Candida albicans, ATCC60193; fungus; YEPD broth, 48 h, 36 °C; read-out: MIC Ca
[11] = target: acetylcholinesterase (Homo sapiens, UniProt P22303); assay: biochemical; details: Tris-HCl pH 8.0, 25 °C, 405 nm; read-out: AChE IC50 (converted)
Chain of acetylcholinesterase (P22303 32-614, species assumed): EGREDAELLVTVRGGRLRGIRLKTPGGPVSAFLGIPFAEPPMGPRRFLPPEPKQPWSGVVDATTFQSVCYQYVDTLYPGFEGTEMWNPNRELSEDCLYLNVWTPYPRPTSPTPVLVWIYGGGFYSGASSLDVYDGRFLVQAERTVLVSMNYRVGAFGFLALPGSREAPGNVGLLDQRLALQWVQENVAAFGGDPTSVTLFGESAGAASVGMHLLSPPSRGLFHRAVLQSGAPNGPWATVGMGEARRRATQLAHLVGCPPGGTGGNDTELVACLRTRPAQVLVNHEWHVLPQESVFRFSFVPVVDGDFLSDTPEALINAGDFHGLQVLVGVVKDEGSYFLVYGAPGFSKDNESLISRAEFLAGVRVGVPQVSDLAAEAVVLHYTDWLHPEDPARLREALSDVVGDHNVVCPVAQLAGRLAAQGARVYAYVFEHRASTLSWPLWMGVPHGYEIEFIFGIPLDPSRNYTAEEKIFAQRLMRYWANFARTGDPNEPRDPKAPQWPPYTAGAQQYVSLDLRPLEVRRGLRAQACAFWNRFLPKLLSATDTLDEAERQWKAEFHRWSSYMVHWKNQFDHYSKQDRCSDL

[12] = target: butyrylcholinesterase (Homo sapiens, UniProt P06276); assay: biochemical; details: Tris-HCl pH 8.0, 25 °C, 405 nm; read-out: BChE IC50 (converted)
Chain of butyrylcholinesterase (P06276 29-602): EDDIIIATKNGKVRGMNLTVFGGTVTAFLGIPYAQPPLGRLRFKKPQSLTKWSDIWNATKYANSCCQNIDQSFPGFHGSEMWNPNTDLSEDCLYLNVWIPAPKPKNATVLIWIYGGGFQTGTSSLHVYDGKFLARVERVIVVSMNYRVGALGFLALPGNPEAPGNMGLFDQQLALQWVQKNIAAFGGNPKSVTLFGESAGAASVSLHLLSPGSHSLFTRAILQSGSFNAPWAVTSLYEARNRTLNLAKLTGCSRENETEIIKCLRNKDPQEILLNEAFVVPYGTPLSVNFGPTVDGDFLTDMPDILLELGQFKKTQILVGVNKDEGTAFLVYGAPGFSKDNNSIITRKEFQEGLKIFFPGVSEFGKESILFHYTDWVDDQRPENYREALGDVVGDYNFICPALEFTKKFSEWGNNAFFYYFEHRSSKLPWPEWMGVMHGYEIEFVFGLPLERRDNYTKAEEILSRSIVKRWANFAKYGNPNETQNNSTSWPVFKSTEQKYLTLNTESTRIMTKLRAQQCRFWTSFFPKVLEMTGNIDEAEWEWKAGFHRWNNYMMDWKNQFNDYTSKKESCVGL

[13] = target: α-glucosidase; assay: α-Glucosidase inhibition; type: biochemical; details: PNPG, pH 6.8, 37 °C, 400 nm
Procedure: It was incubated at 37 °C for 15 min. Similarly, an enzyme-free blank was prepared. The reaction was stopped when sodium carbonate (50 μL, 0.2 M) was added.

[14] = DPPH radical scavenging activity; details: 0.1 mM DPPH, 50 min dark, 517 nm
[15] = Copper ions reducing activity (CUPRAC); details: Trolox equivalents; 30 min dark, room temperature, 450 nm
[16] = Ferric reducing antioxidant power (FRAP) assay; details: Trolox equivalents; compounds 2 mg/mL, 30 °C 30 min, 595 nm
[17] = system: Enterococcus faecalis ATCC29212; assay: MIC, microdilution, E. faecalis; type: cell-based; details: Enterococcus faecalis, ATCC29212; Gram (+); Mueller-Hinton broth, 18-24 h, 36 °C; read-out: MIC Ef
[18] = ATCC25922, Gram (-), Mueller-Hinton broth, 18-24 h, 36 °C, read-out: MIC Ec
[19] = ATCC25923, Gram (+), Mueller-Hinton broth, 18-24 h, 36 °C, read-out: MIC Sa
[20] = ROMA709, Gram (+), Mueller-Hinton broth, 18-24 h, 36 °C, read-out: MIC Bc

| Structure (SMILES) | MIC [4] | MIC [5] | MIC ([6]; ATCC25923, read-out: MIC Sa) | MIC [7] | MIC ([8]; ROMA709, read-out: MIC Bc) | MIC [9] | MIC [10] | IC50 [11] | IC50 [12] | α-Glucosidase IC50 [13] | DPPH radical scavenging capacity (SC50) [14] | CUPRAC, copper reducing antioxidant power [15] | FRAP, the iron reducing antioxidant power [16] | MIC [3, 18] | MIC [17] | MIC [6, 19] | MIC [8, 20] | other results |
| --- | --- | --- | --- | --- | --- | --- | --- | --- | --- | --- | --- | --- | --- | --- | --- | --- | --- | --- |
| N.N.[Cl][Pt][Cl] [Cisplatin, reference compound] | – | – | – | – | – | – | – | – | – | – | – | – | – | – | – | – | – | GI50 RPE normal cell line ([1]; MTT, 24 h incubation): 1.56 µg/mL; IC50 RPE normal cell line ([1]; MTT, 24 h incubation): 58.77 µg/mL; GI50 HeLa cell line ([2]; MTT, 24 h incubation): 1.13 µg/mL; IC50 HeLa cell line ([2]; MTT, 24 h incubation): 42.76 µg/mL |
| O=C(c1ccc(O)cc1)C(O)c1ccccc1 (stereo not shown) [Compound 2, 2-Hydroxy-1-(4-hydroxyphenyl)-2-phenylethanone] | 1030 µg/mL (≈ 4520 µM) | 2060 µg/mL (≈ 9050 µM) | 1030 µg/mL (≈ 4520 µM) | 1030 µg/mL (≈ 4520 µM) | 1030 µg/mL (≈ 4520 µM) | 129 µg/mL (≈ 565 µM) | 516 µg/mL (≈ 2260 µM) | 1070 µM | 323 µM | 547.97 µg/mL | 13.78 ± 1.3 mg/mL | 140.00 ± 11.5 μg/mL trolox/gram DW | 1881 ± 75.5 μg/mL trolox/gram DW | – | – | – | – | MIC ([3]; ATCC25922, read-out: MIC Ec): 1030 µg/mL (≈ 4520 µM) |
| O=C(c1cc(O)cc(O)c1)C(O)c1ccccc1 (stereo not shown) [Compound 3, 2-Hydroxy-1-(3,5-dihydroxyphenyl)-2-phenylethanone] | 1660 µg/mL (≈ 6780 µM) | 207 µg/mL (≈ 848 µM) | 207 µg/mL (≈ 848 µM) | 414 µg/mL (≈ 1700 µM) | 207 µg/mL (≈ 848 µM) | 103 µg/mL (≈ 422 µM) | 414 µg/mL (≈ 1700 µM) | 1630 µM | 592 µM | 812.10 µg/mL | 8.72 ± 0.26 mg/mL | 90.00 ± 6.8 μg/mL trolox/gram DW | 1111 ± 47.9 μg/mL trolox/gram DW | 820 µg/mL (≈ 3360 µM) | 820 µg/mL (≈ 3360 µM) | – | – | – |
| O=C(c1cccc(O)c1)C(O)c1cccc(O)c1 (stereo not shown) [Compound 4, 1,2-Bis(3-hydroxyphenyl)-2-hydroxyethanone] | 640 µg/mL (≈ 2620 µM) | 320 µg/mL (≈ 1310 µM) | – | – | – | 160 µg/mL (≈ 655 µM) | 1280 µg/mL (≈ 5240 µM) | 454 µM | 462 µM | >1000 µg/mL | 8.16 ± 0.3 mg/mL | 398.33 ± 22.1 μg/mL trolox/gram DW | 1534 ± 75.0 μg/mL trolox/gram DW | 320 µg/mL (≈ 1310 µM) | – | 640 µg/mL (≈ 2620 µM) | 160 µg/mL (≈ 655 µM) | GI50 ([1]; Homo sapiens, 24 h, read-out: GI50 RPE normal cell line): 1.15 µg/mL (≈ 4.71 µM); IC50 ([1]; Homo sapiens, 24 h, read-out: IC50 RPE normal cell line): 30.3 µg/mL (≈ 124 µM); GI50 ([2]; Homo sapiens, HeLa, 24 h, read-out: GI50 HeLa cell line): 1.12 µg/mL (≈ 4.59 µM); IC50 ([2]; Homo sapiens, HeLa, 24 h, read-out: IC50 HeLa cell line): 42.7 µg/mL (≈ 175 µM) |
| O=C(c1ccc(O)cc1)C(O)c1cccc(O)c1 (stereo not shown) [Compound 5, 2-Hydroxy-2-(3-hydroxyphenyl)-1-(4-hydroxyphenyl)ethanone] | 775 µg/mL (≈ 3170 µM) | 96 µg/mL (≈ 393 µM) | – | 48 µg/mL (≈ 197 µM) | – | 48 µg/mL (≈ 197 µM) | – | 3230 µM | > 4090 µM | >1000 µg/mL | 8.12 ± 1.2 mg/mL | 1113.33±64 μg/mL trolox/gram DW and 1113.33 ± 64.9 μg/mL trolox/gram DW | 2090 ± 101.4 μg/mL trolox/gram DW | 387 µg/mL (≈ 1580 µM) | 1550 µg/mL (≈ 6350 µM) | 96 µg/mL (≈ 393 µM) | 48 µg/mL (≈ 197 µM) | – |
